Test results from patent US12016858B2, “Methods for the treatment of abnormal involuntary movement disorders” (AUSPEX PHARMACEUTICALS, INC., priority 2015, dated 2024).

How the values were obtained:
[1] = tested on: cardiac repolarization (QTcF interval); assay: TQT study, six-period crossover, placebo- and positive-controlled; type: in vivo, healthy volunteers
Protocol: Study Design. Given the known risk for tetrabenazine to increase the QT interval, a TQT study of deutetrabenazine, which included tetrabenazine as a treatment arm, was conducted in 48 healthy volunteers. This was a single-center, randomized, double-blind, placebo- and positive-controlled six-period crossover study to evaluate the effects of low-dose (12 mg) and high-dose (24 mg) deutetrabenazine on cardiac repolarization, based on placebo-corrected, time-matched changes from baseline in the QTcF interval. Assay sensitivity was established by using moxifloxacin 400 mg as the positive control.
The key outcome measure was to determine the effect of single doses of deutetrabenazine on the QTc interval.
In the table above, ΔΔQTcF is defined as the difference between the least squares mean change from baseline for the active drug and placebo. deutetrabenazine was compared with deutetrabenazine placebo (administered under fed conditions) and tetrabenazine was compared with tetrabenazine placebo (administered under fasted conditions). […] The upper limit of the 95% one-sided confidence interval is the upper limit of the 90% 2-sided confidence interval.

patients with HD = settings: cited from earlier work
QTc interval = settings: 50 mg; 90% two-sided CI: 5.0, 10.4 ms; cited from earlier work
[2] = tested on: patients with hyperkinetic movement disorders; settings: retrospective study of 98 patients; cited from earlier work
[3] = 12-week placebo-controlled study

COc1c(N2C[C@@H]3CCCN[C@@H]3C2)c(F)cc2c(=O)c(C(=O)O)cn(C3CC3)c12 [Moxifloxacin, reference compound]
Maximum Placebo-Adjusted Change from Baseline in QTcF ([1]; 400 mg, positive control): 14.0 ms

COc1cc2c(cc1OC)C1CC(=O)C(CC(C)C)CN1CC2 (stereo not shown) [tetrabenazine, 1,3,4,6,7,11b-Hexahydro-9,10-dimethoxy-3-(2-methylpropyl)-2H-benzo[a]quinoline]
Maximum Placebo-Adjusted Change from Baseline in QTcF ([1]; 50 mg single dose, fasted): 7.6 ms | time point at which the maximal ΔΔQTcF was observed ([1]; in vivo): 3 h | TMC score of the UHDRS (patients with HD; [3]): demonstrated to improve the TMC score | TMS (patients with HD; [3]): failed to show statistically significant improvement in TMS | adverse events suggestive of parkinsonism (patients with HD; 12-week randomized controlled trial): 15% | patients in whom dose escalation was discontinued or dosage reduced due to adverse events (patients with HD; 28 of 54 patients randomized): 52% | Adverse reaction Akathisia (patients with HD; N = 54): 10 (19) n (%) | Adverse reaction Anxiety/anxiety aggravated (patients with HD; N = 54): 8 (15) n (%) | Adverse reaction Appetite decreased (patients with HD; N = 54): 2 (4) n (%) | Adverse reaction Balance difficulty (patients with HD; N = 54): 5 (9) n (%) | Adverse reaction Bronchitis (patients with HD; N = 54): 2 (4) n (%) | Adverse reaction Depression (patients with HD; N = 54): 10 (19) n (%) | Adverse reaction Dizziness (patients with HD; N = 54): 2 (4) n (%) | Adverse reaction Dysarthria (patients with HD; N = 54): 2 (4) n (%) | Adverse reaction Dysuria (patients with HD; N = 54): 2 (4) n (%) | Adverse reaction Ecchymosis (patients with HD; N = 54): 3 (6) n (%) | Adverse reaction Fall (patients with HD; N = 54): 8 (15) n (%) | Adverse reaction Fatigue (patients with HD; N = 54): 12 (22) n (%) | Adverse reaction Gait unsteady (patients with HD; N = 54): 2 (4) n (%) | Adverse reaction Headache (patients with HD; N = 54): 2 (4) n (%) | Adverse reaction Insomnia (patients with HD; N = 54): 12 (22) n (%) | Adverse reaction Irritability (patients with HD; N = 54): 5 (9) n (%) | Adverse reaction Laceration (head) (patients with HD; N = 54): 3 (6) n (%) | Adverse reaction Nausea (patients with HD; N = 54): 7 (13) n (%) | Adverse reaction Obsessive reaction (patients with HD; N = 54): 2 (4) n (%) | Adverse reaction Parkinsonism/bradykinesia (patients with HD; N = 54): 5 (9) n (%) | Adverse reaction Sedation/somnolence (patients with HD; N = 54): 17 (31) n (%) | Adverse reaction Shortness of breath (patients with HD; N = 54): 2 (4) n (%) | Adverse reaction Upper respiratory tract infection (patients with HD; N = 54): 6 (11) n (%) | Adverse reaction Vomiting (patients with HD; N = 54): 3 (6) n (%) | boxed warning: depression and suicidality in patients with HD (patients with HD; prescribing information): increases the risk of depression and suicidal thoughts and behavior (suicidality) | mean increase in QTc interval (QTc interval): approximately 8 ms | dysphagia observed in patients [2]: 19%
